# Laboratory results from ChEMBL document CHEMBL2203174, “SAR Development of Lysine-Based Irreversible Inhibitors of Transglutaminase 2 for Huntington's Disease” (ACS Med Chem Lett, 2012).
# pIC50: −log10 of the molar value.
# Legend:
# [1] = Ratio of IC50 for mouse transglutaminase 2 to IC50 for human transglutaminase 2
# [2] = molecular target: T1, Protein-glutamine gamma-glutamyltransferase (Homo sapiens, UniProt P21980); assay: Irreversible inhibition of transglutaminase 2
# T1 sequence (P21980 whole entry): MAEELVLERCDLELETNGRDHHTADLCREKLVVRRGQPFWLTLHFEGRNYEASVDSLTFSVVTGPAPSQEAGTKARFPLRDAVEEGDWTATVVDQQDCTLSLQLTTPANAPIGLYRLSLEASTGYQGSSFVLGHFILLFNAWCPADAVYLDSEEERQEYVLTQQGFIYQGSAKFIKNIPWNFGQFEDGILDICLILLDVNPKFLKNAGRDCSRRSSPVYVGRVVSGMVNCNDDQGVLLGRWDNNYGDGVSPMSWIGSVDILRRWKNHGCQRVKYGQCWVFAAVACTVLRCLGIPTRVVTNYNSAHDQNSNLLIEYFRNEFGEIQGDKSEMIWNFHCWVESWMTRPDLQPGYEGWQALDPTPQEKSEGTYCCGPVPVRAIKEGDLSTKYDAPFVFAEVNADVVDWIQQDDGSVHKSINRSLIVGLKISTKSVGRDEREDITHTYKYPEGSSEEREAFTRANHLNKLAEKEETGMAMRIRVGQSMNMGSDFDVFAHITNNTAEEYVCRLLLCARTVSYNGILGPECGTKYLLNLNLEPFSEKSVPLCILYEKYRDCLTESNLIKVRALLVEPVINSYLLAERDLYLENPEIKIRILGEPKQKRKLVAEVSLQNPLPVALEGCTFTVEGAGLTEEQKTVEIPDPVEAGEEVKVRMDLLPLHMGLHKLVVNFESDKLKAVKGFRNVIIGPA
# [3] = molecular target: T2, Protein-glutamine gamma-glutamyltransferase K (Homo sapiens, UniProt P22735); assay: Inhibition of transglutaminase 1
# T2 sequence (P22735 whole entry): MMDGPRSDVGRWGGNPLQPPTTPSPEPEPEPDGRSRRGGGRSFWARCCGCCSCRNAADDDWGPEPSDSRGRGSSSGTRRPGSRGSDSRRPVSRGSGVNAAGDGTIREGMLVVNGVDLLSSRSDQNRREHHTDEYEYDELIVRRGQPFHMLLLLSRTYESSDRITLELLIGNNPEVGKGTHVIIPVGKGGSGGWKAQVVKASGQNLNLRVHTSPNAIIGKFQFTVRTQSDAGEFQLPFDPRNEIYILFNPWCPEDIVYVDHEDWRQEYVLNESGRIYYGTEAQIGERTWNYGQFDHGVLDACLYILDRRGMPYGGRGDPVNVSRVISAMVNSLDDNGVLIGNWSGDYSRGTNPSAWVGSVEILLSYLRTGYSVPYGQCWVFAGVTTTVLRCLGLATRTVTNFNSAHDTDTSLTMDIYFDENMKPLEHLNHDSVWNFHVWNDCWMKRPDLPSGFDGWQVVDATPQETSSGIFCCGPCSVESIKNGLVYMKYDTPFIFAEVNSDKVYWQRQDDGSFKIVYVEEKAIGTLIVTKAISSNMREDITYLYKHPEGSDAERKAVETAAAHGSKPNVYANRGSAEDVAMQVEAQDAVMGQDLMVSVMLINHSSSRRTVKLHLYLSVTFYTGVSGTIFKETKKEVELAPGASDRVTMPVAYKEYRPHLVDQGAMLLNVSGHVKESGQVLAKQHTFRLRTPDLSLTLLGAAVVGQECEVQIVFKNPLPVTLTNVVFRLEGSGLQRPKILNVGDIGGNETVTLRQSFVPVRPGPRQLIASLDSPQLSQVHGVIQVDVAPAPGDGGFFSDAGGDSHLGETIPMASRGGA
# [4] = molecular target: T3, Coagulation factor XIII A chain (Homo sapiens, UniProt P00488); assay: Inhibition of coagulation factor 13a
# T3 sequence (P00488 whole entry): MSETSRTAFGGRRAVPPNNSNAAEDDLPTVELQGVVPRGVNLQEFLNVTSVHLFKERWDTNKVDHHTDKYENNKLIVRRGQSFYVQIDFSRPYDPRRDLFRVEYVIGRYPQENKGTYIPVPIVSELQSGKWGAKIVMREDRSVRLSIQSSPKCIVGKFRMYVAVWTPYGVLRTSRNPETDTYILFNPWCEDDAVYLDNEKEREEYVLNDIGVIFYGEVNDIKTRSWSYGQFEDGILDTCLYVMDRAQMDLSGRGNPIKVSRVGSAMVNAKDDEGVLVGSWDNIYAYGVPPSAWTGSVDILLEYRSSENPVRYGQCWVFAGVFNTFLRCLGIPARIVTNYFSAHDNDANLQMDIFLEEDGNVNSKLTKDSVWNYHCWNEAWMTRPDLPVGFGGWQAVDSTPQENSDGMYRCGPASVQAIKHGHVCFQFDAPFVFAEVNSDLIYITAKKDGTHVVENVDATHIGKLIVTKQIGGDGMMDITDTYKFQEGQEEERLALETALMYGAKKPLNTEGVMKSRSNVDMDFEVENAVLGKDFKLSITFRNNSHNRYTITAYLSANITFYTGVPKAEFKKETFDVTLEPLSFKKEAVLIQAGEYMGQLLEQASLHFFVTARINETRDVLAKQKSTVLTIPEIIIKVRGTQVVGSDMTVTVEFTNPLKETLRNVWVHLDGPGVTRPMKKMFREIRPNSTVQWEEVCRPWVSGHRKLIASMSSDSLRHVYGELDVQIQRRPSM
# [5] = molecular target: T4, Protein-glutamine gamma-glutamyltransferase E (Homo sapiens, UniProt Q08188); assay: Inhibition of transglutaminase 3
# T4 sequence (Q08188 whole entry): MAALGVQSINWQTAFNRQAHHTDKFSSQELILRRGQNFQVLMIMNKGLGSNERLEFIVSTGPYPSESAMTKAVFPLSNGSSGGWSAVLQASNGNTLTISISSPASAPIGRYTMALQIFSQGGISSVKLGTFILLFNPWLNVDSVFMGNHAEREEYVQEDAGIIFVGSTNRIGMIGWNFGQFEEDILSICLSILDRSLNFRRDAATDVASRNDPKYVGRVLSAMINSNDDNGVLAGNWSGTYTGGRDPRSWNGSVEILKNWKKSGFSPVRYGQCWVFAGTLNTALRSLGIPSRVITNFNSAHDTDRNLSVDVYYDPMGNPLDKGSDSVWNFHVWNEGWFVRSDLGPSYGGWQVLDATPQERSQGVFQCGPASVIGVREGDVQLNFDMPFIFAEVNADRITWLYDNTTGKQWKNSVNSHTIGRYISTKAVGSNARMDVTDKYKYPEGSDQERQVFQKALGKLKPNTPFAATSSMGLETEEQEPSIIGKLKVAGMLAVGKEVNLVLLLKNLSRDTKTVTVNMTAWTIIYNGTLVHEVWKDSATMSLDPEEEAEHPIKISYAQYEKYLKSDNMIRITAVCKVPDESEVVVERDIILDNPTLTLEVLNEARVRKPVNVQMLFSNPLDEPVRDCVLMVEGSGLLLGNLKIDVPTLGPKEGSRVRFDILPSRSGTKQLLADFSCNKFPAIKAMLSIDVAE
pIC50 [2],SMILES,other results
6.21,C=CC(=O)NCCCC[C@H](NC(=O)OCc1ccccc1)C(=O)N1CCN(C)CC1,Ratio IC50 [1]: 2
4.85,C=CC(=O)NCCCC[C@H](NC(=O)OCc1cccc2ccccc12)C(=O)O,
5.60,C=CC(=O)NCCCC[C@H](NC(=O)OCc1ccccc1)C(=O)N1CCC1,
6.18,C=CC(=O)NCCCC[C@H](NC(=O)OCc1ccccc1)C(=O)N1CCC(F)(F)CC1,
5.72,C=CC(=O)NCCCC[C@H](NC(=O)OCc1ccccc1Cl)C(=O)O,
5.12,C=CC(=O)NCCCCCNC(=O)OCc1ccccc1,
6.23,C=CC(=O)NCCCC[C@H](NC(=O)OCc1ccccc1)C(=O)N1CCCCCC1,
5.92,C=CC(=O)NCCCC[C@H](NC(=O)OCc1ccccc1)C(=O)N1CCCCC1,
6.14,C=CC(=O)NCCCC[C@H](NC(=O)OCc1ccccc1)C(=O)N1CCOCC1,
5.57,C=CC(=O)NCCCC[C@H](NC(=O)OCc1ccccc1)C(=O)O,
5.85,C=CC(=O)NCCCC[C@H](NC(=O)OCc1ccccc1)C(=O)N(CC)CC,
6.24,C=CC(=O)NCCCC[C@H](NC(=O)OCc1ccccc1)C(=O)N1CCCC1,
5.10,C=CC(=O)NCCCC[C@H](NC(=O)OCc1ccc(F)cc1)C(=O)O,
5.27,C=CC(=O)NCCCC[C@@H](CO)NC(=O)OCc1ccccc1,
5.96,C=CC(=O)NCCCC[C@H](NC(=O)OCc1ccccc1)C(=O)N(C)C,
5.04,C=CC(=O)NCCCC[C@H](NC(=O)OCc1ccc2ccccc2c1)C(=O)O,

# The remaining lines, values behind:
SMILES,pIC50 [2],other results
C=CC(=O)NCCC1C[C@@H](C(=O)N2CCN(c3cccc(C)n3)CC2)N(C(=O)OC(C)(C)C)C1 (mixture of isomers),5.74,
C=CC(=O)NCCCC[C@H](NC(=O)OCc1ccccc1)C(=O)N1Cc2ccccc2C1,6.62,
C=CC(=O)NCCCC[C@H](NC(=O)OCc1ccc(C(C)(C)C)cc1)C(=O)O,4.68,
C=CC(=O)NCCCC[C@H](NC(C)=O)C(=O)N1CCN(c2cccc(C)n2)CC1,6.72,
C=CC(=O)NCCCC[C@H](NC(=O)OCc1ccc(CCCC)cc1)C(=O)O,5.23,
C=CC(=O)NCCCC[C@H](NC(=O)OCc1ccc(C)cc1)C(=O)O,4.85,
C=CC(=O)N1CCC(C[C@H](NC(=O)OC(C)(C)C)C(=O)O)CC1,< 4.10,
C=CC(=O)NCCCC[C@H](NC(=O)OCc1ccccc1)C(=O)N1CCN(c2ncccc2C(F)(F)F)CC1,6.80,Ratio IC50 [1]: 2
C=CC(=O)NCCCC[C@H](NC(=O)OCc1c(F)cccc1F)C(=O)O,5.00,
C=CC(=O)NCCCC[C@H](NC(=O)OCc1ccccc1)C(=O)N1CCN(c2ncccc2C)CC1,6.77,Ratio IC50 [1]: 2
C=CC(=O)NCCCC[C@H](NC(=O)OCc1ccccc1)C(=O)N1CCN(c2cccc(C)n2)CC1,7.26,Ratio IC50 [1]: 2
C=CC(=O)NCCCC[C@H](NC(=O)OCc1ccc(C(F)(F)F)cc1)C(=O)O,4.48,
C=CC(=O)NCCCC[C@H](NC(=O)c1ccc2ccccc2c1)C(=O)N1CCN(c2cccc(C)n2)CC1,5.80,
C=CC(=O)NCCCC[C@H](NC(=O)OCc1ccccc1)C(=O)N1CCN(c2ccccn2)CC1,6.59,Ratio IC50 [1]: 2
C=CC(=O)NCCCC[C@H](NC(=O)OCc1ccccc1)C(=O)N1CCC(c2ccccc2)CC1,7.27,pIC50 [3]: 5.03; pIC50 [4]: 4.68; pIC50 [5]: < 4.10
C=CC(=O)NCCCC[C@H](NC(=O)OC(C)(C)C)C(=O)N1CCN(c2cccc(C)n2)CC1,6.07,
C=CC(=O)NCCCC[C@H](NC(=O)OC)C(=O)O,< 4.10,
C=CC(=O)NCCCC[C@H](NC(=O)OCc1ccccc1C(F)(F)F)C(=O)O,5.46,
C=CC(=O)NCCCC[C@H](NC(=O)OCc1ccccc1)C(=O)N1CCN(c2cc(Cl)ccc2OC)CC1,7.11,Ratio IC50 [1]: 2
C=CC(=O)Nc1ccc(C[C@H](NC(=O)OCc2ccccc2)C(=O)O)cc1,< 4.10,
C=CC(=O)NCCCC[C@H](NC(=O)OCc1ccc([N+](=O)[O-])cc1)C(=O)O,4.21,
C=CC(=O)NCCCC[C@H](NC(=O)OCc1ccccc1)C(=O)N1CCN(c2ccc(C(F)(F)F)cn2)CC1,6.96,Ratio IC50 [1]: 2
C=CC(=O)NCCCC[C@H](NC(=O)OCc1ccccc1)C(=O)N1CCN(c2ccc3ccccc3c2)CC1,6.64,Ratio IC50 [1]: 2
C=CC(=O)NCCCC[C@H](NC(=O)OCc1cccc(C(F)(F)F)c1)C(=O)O,5.00,
C=CC(=O)NCCCC[C@H](NC(=O)c1ccccc1)C(=O)N1CCN(c2cccc(C)n2)CC1,6.72,
